Literature values in US8338346B2, “Perfume compositions comprising functional perfume components” (The Procter & Gamble Company, priority 2008, dated 2012).

How the values were obtained:
[1] = odor detection threshold; approximate reported values
[2] = approximate reported values; unit inferred

| SMILES | ODT [1] | Vapor pressure [2] |
| --- | --- | --- |
| C=C(C)C1CC=C(C)CC1 [D-Limonene, 1-methyl-4-isopropenyl-1-cyclohexene] | 204 ppb |  |
| CC(=O)OCCCCCCC(C)C [Iso-Nonyl Acetate, iso-nonyl acetate] | 12 ppb | 0.11 mmHg |
| C=CC(C)(O)CCC=C(C)C (centres unmarked) [Linalool, 3-hydroxy-3,7-dimethyl-1,6 octadiene] | 22 ppb | 0.05 mmHg |
